{"source": "patent US3978211A", "about": "“Lipiarmycin and its preparation” (Gruppo Lepetit S.p.A., priority 1973, dated 1976)", "key": {"[1]": {"tested_on": "Staphylococcus aureus ATCC 6538 resistant to erythromycin", "test": "Minimum inhibitory concentration, resistant strain (Table II)", "format": "cell-based", "description": "(§1) Lipiarmycin is also active against strains which are resistant to other antibiotics which are widely used in chemotherapeutic practice. As a representative example, in the following table the minimum inhibitory concentrations (M.I.C.), γ/ml., of lipiarmycin against Staphylococcus aureus strains resistant to several antibiotics are reported."}, "[2]": {"tested_on": "Staphylococcus aureus ATCC 6538 resistant to penicillin", "test": "Minimum inhibitory concentration, resistant strain (Table II)", "format": "cell-based", "description": "as §1"}, "mice": {"tested_on": "mice", "test": "Toxicity, LD50 i.p. in mice"}, "[3]": {"conditions": "pH 7"}, "[4]": {"tested_on": "Mycobacterium tub. H37Rv ATCC 9360", "test": "Minimal inhibitory concentration", "format": "cell-based", "description": "(§2) The antibiotic substance of the invention is active against bacteria, and in particular against the following microorganisms at the indicated concentrations."}, "[5]": {"tested_on": "Mycoplasma gallisepticum H 21 C.Z.B.", "test": "Minimal inhibitory concentration", "format": "cell-based", "description": "as §2"}, "[6]": {"tested_on": "Streptococcus mutans ATCC 25175", "test": "Minimal inhibitory concentration", "format": "cell-based", "description": "as §2"}, "[7]": {"tested_on": "Staphylococcus aureus ATCC 6538", "test": "Minimal inhibitory concentration", "format": "cell-based", "description": "as §2"}, "[8]": {"tested_on": "Streptococcus hemolyticus C203", "test": "Minimal inhibitory concentration", "format": "cell-based", "description": "as §2"}, "[9]": {"tested_on": "Diplococcus pneumoniae UC 41", "test": "Minimal inhibitory concentration", "format": "cell-based", "description": "as §2"}, "[10]": {"tested_on": "Staphylococcus aureus Tour", "test": "Minimal inhibitory concentration", "format": "cell-based", "description": "as §2"}, "[11]": {"format": "physicochemical", "conditions": "methyl cellosolve", "description": "An ionizable function is spectrophotometrically evidenced with pKa (in methyl cellosolve): 6.8"}, "[12]": {"tested_on": "Staphylococcus aureus ATCC 6538 resistant to neomycin", "test": "Minimum inhibitory concentration, resistant strain (Table II)", "format": "cell-based", "conditions": "S. aureus ATCC 6538 resistant to neomycin", "description": "as §1"}, "[13]": {"tested_on": "Staphylococcus aureus ATCC 6538 resistant to oleandomycin", "test": "Minimum inhibitory concentration, resistant strain (Table II)", "format": "cell-based", "description": "as §1"}, "[14]": {"tested_on": "Staphylococcus aureus ATCC 6538 resistant to bacitracin", "test": "Minimum inhibitory concentration, resistant strain (Table II)", "format": "cell-based", "conditions": "S. aureus ATCC 6538 resistant to bacitracin", "description": "as §1"}, "[15]": {"tested_on": "Staphylococcus aureus ATCC 6538 resistant to streptothricin", "test": "Minimum inhibitory concentration, resistant strain (Table II)", "format": "cell-based", "conditions": "S. aureus ATCC 6538 resistant to streptothricin", "description": "as §1"}, "[16]": {"tested_on": "Staphylococcus aureus ATCC 6538 resistant to streptomycin", "test": "Minimum inhibitory concentration, resistant strain (Table II)", "format": "cell-based", "description": "as §1"}, "[17]": {"tested_on": "Staphylococcus aureus ATCC 6538 resistant to chloramphenicol", "test": "Minimum inhibitory concentration, resistant strain (Table II)", "format": "cell-based", "description": "as §1"}, "[18]": {"tested_on": "Staphylococcus aureus ATCC 6538 resistant to novobiocin", "test": "Minimum inhibitory concentration, resistant strain (Table II)", "format": "cell-based", "description": "as §1"}, "[19]": {"tested_on": "Staphylococcus aureus ATCC 6538 resistant to cephaloridine", "test": "Minimum inhibitory concentration, resistant strain (Table II)", "format": "cell-based", "description": "as §1"}, "[20]": {"tested_on": "Staphylococcus aureus ATCC 6538 resistant to tetracycline", "test": "Minimum inhibitory concentration, resistant strain (Table II)", "format": "cell-based", "description": "as §1"}, "[21]": {"conditions": "Staphylococcus aureus, ATCC6538, read-out: M.I.C. of other antibiotics"}}, "note": "Residues, ends and D or L forms follow the SMILES beside them."}
{"compound": "CC[C@H]1OC(=O)[C@H](C)[C@@H](O[C@H]2C[C@@](C)(OC)[C@@H](O)[C@H](C)O2)[C@H](C)[C@@H](O[C@@H]2O[C@H](C)C[C@H](N(C)C)[C@H]2O)[C@](C)(O)C[C@@H](C)C(=O)[C@H](C)[C@@H](O)[C@]1(C)O", "note": "[erythromycin, reference compound]", "values": [{"measurement": "MIC", "setting": "[1]; [21]", "result": "> 100", "unit": "µg/mL"}]}
{"compound": "CC1(C)S[C@@H]2[C@H](NC(=O)Cc3ccccc3)C(=O)N2[C@H]1C(=O)O", "note": "[penicillin, reference compound]", "values": [{"measurement": "MIC", "setting": "[2]; [21]", "result": "> 100", "unit": "µg/mL"}]}
{"compound": "lipiarmycin", "values": [{"measurement": "LD50", "setting": "mice", "result": "about 500 mg./kg."}, {"measurement": "Solubility", "setting": "[3]", "result": "Sparingly soluble to insoluble"}, {"measurement": "MINIMAL INHIBITORY CONCENTRATION", "setting": "[4]", "result": 50, "unit": "µg/mL"}, {"measurement": "MINIMAL INHIBITORY CONCENTRATION", "setting": "[5]", "result": 50, "unit": "µg/mL"}, {"measurement": "MINIMAL INHIBITORY CONCENTRATION", "setting": "[6]", "result": 0.5, "unit": "µg/mL"}, {"measurement": "MINIMAL INHIBITORY CONCENTRATION", "setting": "[7]", "result": 2, "unit": "µg/mL"}, {"measurement": "MINIMAL INHIBITORY CONCENTRATION", "setting": "[8]", "result": 10, "unit": "µg/mL"}, {"measurement": "MINIMAL INHIBITORY CONCENTRATION", "setting": "[9]", "result": 50, "unit": "µg/mL"}, {"measurement": "MINIMAL INHIBITORY CONCENTRATION", "setting": "[10]; Staphylococcus aureus Tour with 10 percent bovine serum", "result": 10, "unit": "µg/mL"}, {"measurement": "MINIMAL INHIBITORY CONCENTRATION", "setting": "[10]; Staphylococcus aureus Tour, without serum", "result": 2, "unit": "µg/mL"}, {"measurement": "pKa", "setting": "[11]", "result": 6.8}, {"measurement": "M.I.C. of lipiarmycin", "setting": "[12]", "result": 2, "unit": "µg/mL"}, {"measurement": "M.I.C. of lipiarmycin", "setting": "[13]; S. aureus ATCC 6538 resistant to oleandomycin", "result": 5, "unit": "µg/mL"}, {"measurement": "M.I.C. of lipiarmycin", "setting": "[14]", "result": 5, "unit": "µg/mL"}, {"measurement": "M.I.C. of lipiarmycin", "setting": "[15]", "result": 5, "unit": "µg/mL"}, {"measurement": "M.I.C. of lipiarmycin", "setting": "[16]; S. aureus ATCC 6538 resistant to streptomycin", "result": 5, "unit": "µg/mL"}, {"measurement": "M.I.C. of lipiarmycin", "setting": "[2]; S. aureus ATCC 6538 resistant to penicillin", "result": 2, "unit": "µg/mL"}, {"measurement": "M.I.C. of lipiarmycin", "setting": "[17]; S. aureus ATCC 6538 resistant to chloramphenicol", "result": 2, "unit": "µg/mL"}, {"measurement": "M.I.C. of lipiarmycin", "setting": "[1]; S. aureus ATCC 6538 resistant to erythromycin", "result": 5, "unit": "µg/mL"}, {"measurement": "M.I.C. of lipiarmycin", "setting": "[18]; S. aureus ATCC 6538 resistant to novobiocin", "result": 2, "unit": "µg/mL"}, {"measurement": "M.I.C. of lipiarmycin", "setting": "[19]; S. aureus ATCC 6538 resistant to cephaloridine", "result": 5, "unit": "µg/mL"}, {"measurement": "M.I.C. of lipiarmycin", "setting": "[20]; S. aureus ATCC 6538 resistant to tetracycline", "result": 5, "unit": "µg/mL"}]}
{"compound": "O=C(Cc1cccs1)N[C@@H]1C(=O)N2C(C(=O)[O-])=C(C[n+]3ccccc3)CS[C@H]12", "note": "[cephaloridine, reference compound]", "values": [{"measurement": "MIC", "setting": "[19]; [21]", "result": "> 100", "unit": "µg/mL"}]}
{"compound": "CC[C@H](C)[C@H](N)C1=N[C@H](C(=O)N[C@@H](CC(C)C)C(=O)N[C@H](CCC(=O)O)C(=O)N[C@H](C(=O)N[C@H]2CCCCNC(=O)[C@H](CC(N)=O)NC(=O)[C@@H](CC(=O)O)NC(=O)[C@H](Cc3cnc[nH]3)NC(=O)[C@@H](Cc3ccccc3)NC(=O)[C@H]([C@@H](C)CC)NC(=O)[C@@H](CCCN)NC2=O)[C@@H](C)CC)CS1", "note": "[bacitracin, reference compound] (HELM PEPTIDE1{[CC[C@H](C)[C@H](N)C1=N[C@H](C(=O)[*:2])CS1].L.[dE].I.K.[NCCC[C@@H](N[*:1])C(=O)[*:2]].I.[dF].H.[dD].N}$PEPTIDE1,PEPTIDE1,5:R3-11:R2$$$V2.0)", "values": [{"measurement": "M.I.C. of other antibiotics", "setting": "[14]", "result": "> 100", "unit": "µg/mL"}]}
{"compound": "O=C(N[C@H](CO)[C@H](O)c1ccc([N+](=O)[O-])cc1)C(Cl)Cl", "note": "[chloramphenicol, reference compound]", "values": [{"measurement": "MIC", "setting": "[17]; [21]", "result": "> 100", "unit": "µg/mL"}]}
{"compound": "neomycin [reference compound]", "values": [{"measurement": "M.I.C. of other antibiotics", "setting": "[12]", "result": "> 100", "unit": "µg/mL"}]}
{"compound": "CO[C@@H]1[C@@H](OC(N)=O)[C@@H](O)[C@H](Oc2ccc3c(O)c(NC(=O)c4ccc(O)c(CC=C(C)C)c4)c(=O)oc3c2C)OC1(C)C", "note": "[novobiocin, reference compound]", "values": [{"measurement": "MIC", "setting": "[18]; [21]", "result": "> 100", "unit": "µg/mL"}]}
{"compound": "CO[C@H]1C[C@H](O[C@H]2[C@H](C)[C@@H](O[C@@H]3O[C@H](C)C[C@H](N(C)C)[C@H]3O)[C@@H](C)C[C@@]3(CO3)C(=O)[C@H](C)[C@@H](O)[C@@H](C)[C@@H](C)OC(=O)[C@@H]2C)O[C@@H](C)[C@@H]1O", "note": "[oleandomycin, reference compound]", "values": [{"measurement": "MIC", "setting": "[13]; [21]", "result": 50, "unit": "µg/mL"}]}
{"compound": "CN(C)[C@@H]1C(O)=C(C(N)=O)C(=O)[C@@]2(O)C(O)=C3C(=O)c4c(O)cccc4[C@@](C)(O)[C@H]3C[C@@H]12", "note": "[tetracycline, reference compound]", "values": [{"measurement": "MIC", "setting": "[20]; [21]", "result": "> 100", "unit": "µg/mL"}]}
{"compound": "[H]/N=C(/N)N[C@H]1[C@H](O)[C@@H](O)[C@H](O[C@@H]2O[C@@H](C)[C@](O)(C=O)[C@H]2O[C@@H]2O[C@@H](CO)[C@H](O)[C@@H](O)[C@@H]2NC)[C@@H](N/C(N)=N\\[H])[C@@H]1O", "note": "[streptomycin, reference compound]", "values": [{"measurement": "MIC", "setting": "[16]; [21]", "result": "> 100", "unit": "µg/mL"}]}
{"compound": "streptothricin [reference compound]", "values": [{"measurement": "M.I.C. of other antibiotics", "setting": "[15]", "result": "> 100", "unit": "µg/mL"}]}
